{"source": "patent US20210086176A1", "about": "“Analyte Detection method” (The Board of Trustees of the Leland Stanford Junior …, priority 2017, published 2021)", "key": {"[1]": {"details": "inhalation; cited from earlier work"}, "[2]": {"details": "in vivo; cited from earlier work"}, "[3]": {"details": "mouse, in vivo, po, 10 mg/kg"}}}
{"smiles": "CC#N", "note": "[acetonitrile]", "values": [{"measurement": "acetonitrile in inhaled air that can induce toxic effects", "setting": "[1]", "result": 100, "unit": "ppm"}]}
{"smiles": "CCC(=O)C(CC(C)N(C)C)(c1ccccc1)c1ccccc1", "note": "(stereo not drawn) [methadone]", "values": [{"measurement": "minimally effective plasma analgesic concentration (MEAC)", "setting": "[2]", "result": 60, "unit": "ng/mL"}]}
{"smiles": "Cc1nccn1CC1CCc2c(c3ccccc3n2C)C1=O", "note": "(stereo not drawn) [ondansetron]", "values": [{"measurement": "slope of trend line, plasma (y) versus whole blood (x) ondansetron concentration", "setting": "[3]", "result": 0.973}]}
